In patent US10000507B2, “Furo- and thieno-pyridine carboxamide compounds useful as pim kinase inhibitors” (Incyte Corporation, priority 2013, dated 2018):

Key:
Type in all cases: biochemical
[1] = target: Pim-1 (Homo sapiens (Human), UniProt P11309); assay: Pim-1 kinase assay; settings: 1 mM ATP, biotin-labeled BAD peptide substrate; read-out: Pim1 IC50
In short: (§1)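 Biotin-BAD peptide ([…]) phosphorylated with 1 mM ATP by 2.5 pM Pim-1 or 1.25 pM Pim-3, 1 h at 25 °C in Tris pH 7.5, MgCl2, DTT buffer. EDTA stop with anti-phospho-BAD (Ser112) antibody and AlphaScreen streptavidin donor/Protein-A acceptor beads; signal read after 1 h dark incubation.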

[2] = target: Pim-3 (Homo sapiens (Human), UniProt Q86V86); assay: Pim-3 kinase assay; settings: 1 mM ATP, biotin-labeled BAD peptide substrate; read-out: Pim3 IC50
In short: as §1

[3] = target: Pim-2 (Homo sapiens (Human), UniProt Q9P1W9); assay: Pim-2 kinase assay; settings: 1 mM ATP, fluorescein-labeled CREBtide peptide substrate; read-out: Pim2 IC50
Pim-2, sequence (Q9P1W9 whole entry): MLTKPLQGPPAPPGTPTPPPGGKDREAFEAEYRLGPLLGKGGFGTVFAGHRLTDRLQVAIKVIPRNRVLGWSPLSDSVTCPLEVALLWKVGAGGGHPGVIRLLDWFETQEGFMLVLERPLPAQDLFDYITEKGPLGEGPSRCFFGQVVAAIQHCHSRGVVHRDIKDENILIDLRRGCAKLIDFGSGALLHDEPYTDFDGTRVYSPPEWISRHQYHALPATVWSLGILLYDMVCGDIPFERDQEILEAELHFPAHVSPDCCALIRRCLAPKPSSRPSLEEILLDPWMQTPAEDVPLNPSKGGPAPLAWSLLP
In short: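 Phosphorylated CREBtide was detected by terbium anti-pSer133 antibody TR-FRET after EDTA quench and 30 min at room temperature. Reactions ran 2 h at 25 °C with 1 mM ATP, 0.05 μM fluorescein-labelled substrate and 1 nM enzyme in pH 7.5 Tris buffer.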

Pim-1, sequence (P11309 whole entry): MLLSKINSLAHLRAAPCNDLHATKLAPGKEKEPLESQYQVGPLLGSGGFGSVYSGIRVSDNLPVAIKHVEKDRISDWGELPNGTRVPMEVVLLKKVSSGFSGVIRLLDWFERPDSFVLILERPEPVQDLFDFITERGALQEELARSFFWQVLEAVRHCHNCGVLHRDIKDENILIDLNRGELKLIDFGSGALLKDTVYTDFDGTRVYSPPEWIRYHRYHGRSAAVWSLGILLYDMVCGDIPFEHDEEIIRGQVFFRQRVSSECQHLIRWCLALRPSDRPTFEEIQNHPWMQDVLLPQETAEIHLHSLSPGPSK

Structure (SMILES)	IC50 [1]	IC50 [2]	IC50 [3]
CC(C)Oc1cnc2c(C(=O)Nc3cnccc3N3C[C@H](C)C[C@H](N)C3)c(N)oc2c1 [Example 121, 2-Amino-N-(4-((3S,5R)-3-amino-5-methylpiperidin-1-yl)pyridin-3-yl)-6-isopropoxyfuro[3,2-b]pyridine-3-carboxamide]	≤ 10 nM	≤ 10 nM	10 to 100 nM
C[C@@H]1C[C@H](N)CN(c2ccncc2NC(=O)c2c(N)oc3cc(C4CCOC4)cnc23)C1 (stereo partly drawn) [Example 122, 2-Amino-N-(4-((3S,5R)-3-amino-5-methylpiperidin-1-yl)pyridin-3-yl)-6-(tetrahydrofuran-3-yl)furo[3,2-b]pyridine-3-carboxamide]	≤ 10 nM	≤ 10 nM	≤ 10 nM
Nc1oc2cc(C3CCOC3)cnc2c1C(=O)Nc1cnccc1N1C[C@@H](N)C[C@@H](C(F)(F)F)C1 (stereo partly drawn) [Example 123, 2-Amino-N-{4-[(3S,5R)-3-amino-5-(trifluoromethyl)piperidin-1-yl]pyridin-3-yl}-6-(tetrahydrofuran-3-yl)furo[3,2-b]pyridine-3-carboxamide]	≤ 10 nM	≤ 10 nM	≤ 10 nM
C[C@H]1CN(c2ccncc2NC(=O)c2c(N)oc3cc(C4CCC4)cnc23)C[C@@H](N)[C@@H]1O [Example 124, 2-Amino-N-{4-[(3R,4R,5S)-3-amino-4-hydroxy-5-methylpiperidin-1-yl]pyridin-3-yl}-6-cyclobutylfuro[3,2-b]pyridine-3-carboxamide]	≤ 10 nM	≤ 10 nM	≤ 10 nM
Nc1oc2cc(C3CCC3)cnc2c1C(=O)Nc1cnccc1N1C[C@@H](N)[C@H](O)[C@@H](C2CC2)C1 [Example 125, 2-Amino-N-{4-[(3R,4R,5S)-3-amino-5-cyclopropyl-4-hydroxypiperidin-1-yl]pyridin-3-yl}-6-cyclobutylfuro[3,2-b]pyridine-3-carboxamide]	≤ 10 nM	≤ 10 nM	≤ 10 nM
CNC(=O)c1ccc(-c2cnc3c(C(=O)Nc4cnccc4N4C[C@@H](N)C[C@@H](C(F)(F)F)C4)c(N)oc3c2)cn1 [Example 126]	≤ 10 nM	≤ 10 nM	10 to 100 nM
CNC(=O)c1ccc(-c2cnc3c(C(=O)Nc4cnccc4N4C[C@H](C)C[C@H](N)C4)c(N)oc3c2)cn1 [Example 127, 2-Amino-N-(4-((3S,5R)-3-amino-5-methylpiperidin-1-yl)pyridin-3-yl)-6-(6-(methylcarbamoyl)pyridin-3-yl)furo[3,2-b]pyridine-3-carboxamide]	≤ 10 nM	≤ 10 nM	10 to 100 nM
Nc1oc2cc(C3CC3)cnc2c1C(=O)Nc1cnccc1N1C[C@@H](N)[C@H](O)[C@@H](C2CC2)C1 [Example 128, 2-Amino-N-(4-((3R,4R,5S)-3-amino-5-cyclopropyl-4-hydroxypiperidin-1-yl)pyridin-3-yl)-6-cyclopropylfuro[3,2-b]pyridine-3-carboxamide]	≤ 10 nM	≤ 10 nM	10 to 100 nM
Nc1oc2cc(C(F)(F)F)cnc2c1C(=O)Nc1cnccc1N1C[C@@H](N)[C@H](O)[C@@H](C2CC2)C1 [Example 129, 2-Amino-N-(4-((3R,4R,5S)-3-amino-5-cyclopropyl-4-hydroxypiperidin-1-yl)pyridin-3-yl)-6-(trifluoromethyl)furo[3,2-b]pyridine-3-carboxamide]	≤ 10 nM	≤ 10 nM	10 to 100 nM
CC(C)c1cnc2c(C(=O)Nc3cnccc3[C@@H]3C[C@H](C)C[C@H](N)C3)c(N)oc2c1 [Example 130, 2-Amino-N-{4-[(1R,3S,5S)-3-amino-5-methylcyclohexyl]pyridin-3-yl}-6-isopropylfuro[3,2-b]pyridine-3-carboxamide]	≤ 10 nM	≤ 10 nM	≤ 10 nM
COCCCc1cnc2c(C(=O)Nc3cnccc3N3C[C@@H](N)C[C@@H](C(F)(F)F)C3)c(N)oc2c1 [Example 131, 2-Amino-N-{4-[(3S,5R)-3-amino-5-(trifluoromethyl)piperidin-1-yl]pyridin-3-yl}-6-(3-methoxypropyl)furo[3,2-b]pyridine-3-carboxamide]	≤ 10 nM	≤ 10 nM	≤ 10 nM
Nc1oc2cc(CCCN3CCOCC3)cnc2c1C(=O)Nc1cnccc1N1C[C@@H](N)C[C@@H](C(F)(F)F)C1 [Example 132, 2-Amino-N-{4-[(3S,5R)-3-amino-5-(trifluoromethyl)piperidin-1-yl]pyridin-3-yl}-6-(3-morpholin-4-ylpropyl)furo[3,2-b]pyridine-3-carboxamide]	≤ 10 nM	≤ 10 nM	≤ 10 nM
C[C@@H]1C[C@H](N)C[C@H](c2ccncc2NC(=O)c2c(N)oc3cc(C4CC4)cnc23)C1 [Example 133, 2-Amino-N-{4-[(1R,3S,5S)-3-amino-5-methylcyclohexyl]pyridin-3-yl}-6-cyclopropylfuro[3,2-b]pyridine-3-carboxamide]	≤ 10 nM	≤ 10 nM	≤ 10 nM
COCCCc1cnc2c(C(=O)Nc3cnccc3N3C[C@H](C)C[C@H](N)C3)c(N)oc2c1 [Example 134, 2-Amino-N-{4-[(3S,5R)-3-amino-5-methylpiperidin-1-yl]pyridin-3-yl}-6-(3-methoxypropyl)furo[3,2-b]pyridine-3-carboxamide]	≤ 10 nM	≤ 10 nM	≤ 10 nM
CN(C)CCCc1cnc2c(C(=O)Nc3cnccc3N3C[C@@H](N)C[C@@H](C(F)(F)F)C3)c(N)oc2c1 [Example 135, 2-Amino-N-{4-[(3S,5R)-3-amino-5-(trifluoromethyl)piperidin-1-yl]pyridin-3-yl}-6-[3-(dimethylamino)propyl]furo[3,2-b]pyridine-3-carboxamide]	≤ 10 nM	≤ 10 nM	10 to 100 nM
Nc1oc2cccnc2c1C(=O)Nc1cnccc1[C@H]1C[C@@H](N)C[C@@H](C(F)(F)F)C1 [Example 136, 2-Amino-N-{4-[(1R,3R,5S)-3-amino-5-(trifluoromethyl)cyclohexyl]pyridin-3-yl}furo[3,2-b]pyridine-3-carboxamide]	≤ 10 nM	≤ 10 nM	10 to 100 nM
C[C@H]1CN(c2ccncc2NC(=O)c2c(N)oc3cc(CCCF)cnc23)C[C@@H](N)[C@@H]1O [Example 137, 2-Amino-N-(4-((3R,4R,5S)-3-amino-4-hydroxy-5-methylpiperidin-1-yl)pyridin-3-yl)-6-(3-fluoropropyl)furo[3,2-b]pyridine-3-carboxamide]	≤ 10 nM	≤ 10 nM	≤ 10 nM
Nc1oc2cc(CCN3CC[C@@H](F)C3)cnc2c1C(=O)Nc1cnccc1N1C[C@@H](N)C[C@@H](C(F)(F)F)C1 [Example 138, 2-Amino-N-{4-[(3S,5R)-3-amino-5-(trifluoromethyl)piperidin-1-yl]pyridin-3-yl}-6-{2-[(3R)-3-fluoropyrrolidin-1-yl]ethyl}furo[3,2-b]pyridine-3-carboxamide]	≤ 10 nM	≤ 10 nM	≤ 10 nM
CC(C)c1cnc2c(C(=O)Nc3cnccc3N3C[C@@H](N)[C@H](O)[C@@H](C)C3)c(N)sc2c1 [Example 139, 2-Amino-N-(4-((3R,4R,5S)-3-amino-4-hydroxy-5-methylpiperidin-1-yl)pyridin-3-yl)-6-isopropylthieno[3,2-b]pyridine-3-carboxamide]	≤ 10 nM	≤ 10 nM	≤ 10 nM
CCCc1cnc2c(C(=O)Nc3cnccc3N3C[C@@H](N)[C@H](O)[C@@H](C)C3)c(N)sc2c1 [Example 140, 2-Amino-N-(4-((3R,4R,5S)-3-amino-4-hydroxy-5-methylpiperidin-1-yl)pyridin-3-yl)-6-propylthieno[3,2-b]pyridine-3-carboxamide]	≤ 10 nM	≤ 10 nM	≤ 10 nM
CC(=O)Nc1cnc2c(C(=O)Nc3cnccc3N3C[C@@H](N)[C@H](O)[C@@H](C)C3)c(N)sc2c1 [Example 141, 6-(Acetylamino)-2-amino-N-{4-[(3R,4R,5S)-3-amino-4-hydroxy-5-methylpiperidin-1-yl]pyridin-3-yl}thieno[3,2-b]pyridine-3-carboxamide]	≤ 10 nM	≤ 10 nM	10 to 100 nM
C[C@H]1CN(c2ccncc2NC(=O)c2c(N)sc3cc(NC(=O)C4CC4)cnc23)C[C@@H](N)[C@@H]1O [Example 142, 2-Amino-N-(4-((3R,4R,5S)-3-amino-4-hydroxy-5-methylpiperidin-1-yl)pyridin-3-yl)-6-(cyclopropanecarboxamido)thieno[3,2-b]pyridine-3-carboxamide]	≤ 10 nM	≤ 10 nM	10 to 100 nM
CC(C)C(=O)Nc1cnc2c(C(=O)Nc3cnccc3N3C[C@@H](N)[C@H](O)[C@@H](C)C3)c(N)sc2c1 [Example 143, 2-Amino-N-(4-((3R,4R,5S)-3-amino-4-hydroxy-5-methylpiperidin-1-yl)pyridin-3-yl)-6-isobutyramidothieno[3,2-b]pyridine-3-carboxamide]	≤ 10 nM	≤ 10 nM	10 to 100 nM
Nc1sc2cc(N3CCOCC3)cnc2c1C(=O)Nc1cnccc1N1C[C@@H](N)C[C@@H](C(F)(F)F)C1 [Example 144, 2-Amino-N-(4-((3S,5R)-3-amino-5-(trifluoromethyl)piperidin-1-yl)pyridin-3-yl)-6-morpholinothieno[3,2-b]pyridine-3-carboxamide]	≤ 10 nM	≤ 10 nM	10 to 100 nM
